The subject of data set [1] is Lactococcus lactis alcohol dehydrogenase Ll_AdhA, SEQ ID NO: 67. The note with it: NADPH as cofactor; cited from earlier work.
The target in data set [2] is T1, E. coli KARI Ec_IlvC variant Ec_IlvC^S78D-his6 (S78D), SEQ ID NO: 17 (Escherichia coli, UniProt P05793, S78D).
T1 sequence (P05793 with tags, fused parts or gaps S78D): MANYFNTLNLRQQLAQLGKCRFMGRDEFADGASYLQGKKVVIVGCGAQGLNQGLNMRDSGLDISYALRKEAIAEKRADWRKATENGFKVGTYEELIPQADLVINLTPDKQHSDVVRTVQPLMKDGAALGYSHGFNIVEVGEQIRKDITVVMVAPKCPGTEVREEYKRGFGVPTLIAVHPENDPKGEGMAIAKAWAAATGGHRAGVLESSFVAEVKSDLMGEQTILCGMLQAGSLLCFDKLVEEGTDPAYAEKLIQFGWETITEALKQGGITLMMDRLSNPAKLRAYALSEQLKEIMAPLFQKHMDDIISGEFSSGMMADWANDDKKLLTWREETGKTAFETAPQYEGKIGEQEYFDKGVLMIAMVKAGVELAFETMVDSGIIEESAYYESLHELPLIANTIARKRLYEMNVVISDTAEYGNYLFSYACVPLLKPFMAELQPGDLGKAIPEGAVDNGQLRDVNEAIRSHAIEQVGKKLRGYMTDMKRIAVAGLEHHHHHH
Briefly: KARI cuvette assay, purified Ec_IlvC^S78D-his6. As to conditions: from 1075 μM to 130 μM. The format is biochemical. How it is done: (§1) KARI cuvette assay: KARI activity was assayed kinetically by monitoring the decrease in NAD(P)H concentration by measuring the absorbance at 340 nm. A reaction buffer was prepared containing 250 mM potassium phosphate pH 7, 1 mM DTT and 10 mM MgCl2. Cell pellets were resuspended (0.25 g wet weight/mL buffer) in 250 mM potassium phosphate (KPi) buffer containing 1 mM DTT and 10 mM MgCl2. The resuspended cells were lysed by sonication for 1 min with a 50% duty cycle and pelleted at 11000×g and 4° C. for 15 min. A reaction mixture consisting of 910 μl reaction buffer, 50 μl acetolactate, and 20 μl lysate was prepared in a cuvette. The reaction was initiated by addition of 20 μL of 10 mM NAD(P)H. A substrate free control was conducted using reaction buffer without the addition of acetolactate.
(§2) Purification of KARI: Cell pellets used for purification were resuspended in purification buffer A (20 mM Tris, 20 mM imidazol, 100 mM NaCl, 10 mM MgCl2, pH 7.4). KARI was purified by IMAC (Immobilized metal affinity chromatography) over a 1 ml Histrap High Performance (histrap HP) column pre-charged with Nickel (GE Healthcare) using an Akta FPLC system (GE Healthcare). […]

Data set [3] addresses T2, Escherichia coli KARI (ketol-acid reductoisomerase) Ec_IlvC^his6, wild type IlvC (SEQ ID NO: 13) with his6-tag, SEQ ID NO: 15 (Escherichia coli, UniProt P05793).
T2 sequence (P05793 with tags, fused parts or gaps): T1 sequence (P05793 with tags, fused parts or gaps S78D) with D78S
Nature of the data set: KARI cuvette assay, purified Ec_IlvC^his6 (parent / wild type). The data set is classed as biochemical, E. coli. As to conditions: purified; acetolactate as substrate. The protocol: as §1, with “The reaction was initiated by addition of 20 μL of 10 mM NAD(P)H. A substrate free control was conducted using reaction buffer without the addition of acetolactate.” left out
Only 20% of the enzymes of the recombination library were active on NADH. After screening 1,000 clones using the NADH depletion assay at 340 nm, 26 KARI variants were selected for a rescreen by the high-throughput assay described in Example 14 and eight thereof were expressed in 25 ml LBamp medium in shake flasks according to the protocol for cell growth and protein expression in shake flasks as described in Example 14, purified according to the protocol for purification of KARI enzymes as described in Example 14, and NAD(P)H depletion at 340 nm was measured again. […] The KM values of variants Ec_llvC^2H10-his6 and Ec_llvC^6E6-his6 were measured and the catalytic efficiencies were calculated.

For data set [4], the target named is T3, E. coli KARI Ec_IlvC variant Ec_IlvC^P2D1-A1-his6 (Ec_IlvC^P2D1-his6 with K433E), SEQ ID NO: 42 (Escherichia coli, UniProt P05793, A71S/D146G/G185R/K433E/Q110V/R76D/S78D).
T3 sequence (P05793 with tags, fused parts or gaps A71S/R76D/S78D/Q110V/D146G/G185R/K433E): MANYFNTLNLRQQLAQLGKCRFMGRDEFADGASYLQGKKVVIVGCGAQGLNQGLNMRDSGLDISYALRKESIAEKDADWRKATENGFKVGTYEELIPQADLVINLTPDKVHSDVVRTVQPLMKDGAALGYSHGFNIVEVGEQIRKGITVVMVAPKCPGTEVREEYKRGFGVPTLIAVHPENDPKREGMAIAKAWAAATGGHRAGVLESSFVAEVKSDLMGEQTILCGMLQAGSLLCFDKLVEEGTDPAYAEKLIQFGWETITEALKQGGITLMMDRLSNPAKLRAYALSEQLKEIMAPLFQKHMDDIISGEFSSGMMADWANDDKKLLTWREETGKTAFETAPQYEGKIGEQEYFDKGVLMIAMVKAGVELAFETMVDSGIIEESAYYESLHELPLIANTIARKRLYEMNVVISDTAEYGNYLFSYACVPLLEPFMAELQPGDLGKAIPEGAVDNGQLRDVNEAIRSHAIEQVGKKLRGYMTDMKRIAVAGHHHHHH
Briefly: KARI assay, purified Ec_IlvC^P2D1-A1-his6. The format is biochemical. The note with it: expressed in yeast GEVO1186, purified. The protocol: as §1, §2

Substrate in data set [5]: NC(=O)C1=CN([C@@H]2O[C@H](COP(=O)(O)OP(=O)(O)OC[C@H]3O[C@@H](n4cnc5c(N)ncnc54)[C@H](O)[C@@H]3O)[C@@H](O)[C@H]2O)C=CC1
Nature of the data set: KARI cuvette assay, purified Ec_IlvC^Q110V-his6. The data set is classed as biochemical, E. coli. How it is done: as §1, §2

Substrate in data set [6]: NC(=O)C1=CN([C@@H]2O[C@H](COP(=O)(O)OP(=O)(O)OC[C@H]3O[C@@H](n4cnc5c(N)ncnc54)[C@H](O)[C@@H]3O)[C@@H](O)[C@H]2O)C=CC1
Nature of the data set: KARI cuvette assay, purified Ec_IlvC^Q110A-his6. The format is biochemical, E. coli. How it is done:
as §1, §2

Where [7] appears, read: other: purified, acetolactate as substrate.

Positions count from the first letter of the chain named. Names and notes keep the numbering of the source.

The term Km denotes the substrate concentration at which the rate is half of its maximum. What is called kcat/Km is the second-order rate constant that governs catalysis at low substrate concentration.

Take `NC(=O)C1=CN([C@@H]2O[C@H](COP(=O)(O)OP(=O)(O)OC[C@H]3O[C@@H](n4cnc5c(N)ncnc54)[C@H](OP(=O)(O)O)[C@@H]3O)[C@@H](O)[C@H]2O)C=CC1` [NADPH, nicotinamide adenine dinucleotide phosphate]: the “activity when tested with NADPH as a cofactor” value in data set [1] is “^adid not show any detectably activity when tested with NADPH as a cofactor”. Besides, the “decrease of KM value compared to wild-type” value in data set [2] amounted to 16 fold. Further, the kcat/KM in data set [3] was 87,300 M^−1 * s^−1. In addition, in data set [4], the Michaelis-Menten constant (Km) is greater than 1430 µM and the kcat/KM is given as less than 377 M^−1 * S^−1.

B1: E. coli KARI Ec_IlvC variant Ec_IlvC^Q110V-his6 (Q110V), SEQ ID NO: 23 (Escherichia coli K-12; Q110V) (protein)
chain: T1 sequence (P05793 with tags, fused parts or gaps S78D) with D78S, Q110V
Take B1: the kcat/Km turned out to be 24800 M⁻¹ s⁻¹ in data set [5] (setting [7]) and 569000 M⁻¹ s⁻¹ in data set [5] (with NADH).

B2: E. coli KARI Ec_IlvC variant Ec_IlvC^Q110A-his6 (Q110A), SEQ ID NO: 21 (Escherichia coli K-12; Q110A) (protein)
chain: MANYFNTLNLRQQLAQLGKCRFMGRDEFADGASYLQGKKVVIVGCGAQGLNQGLNMRDSGLDISYALRKEAIAEKRASWRKATENGFKVGTYEELIPQADLVINLTPDKAHSDVVRTVQPLMKDGAALGYSHGFNIVEVGEQIRKDITVVMVAPKCPGTEVREEYKRGFGVPTLIAVHPENDPKGEGMAIAKAWAAATGGHRAGVLESSFVAEVKSDLMGEQTILCGMLQAGSLLCFDKLVEEGTDPAYAEKLIQFGWETITEALKQGGITLMMDRLSNPAKLRAYALSEQLKEIMAPLFQKHMDDIISGEFSSGMMADWANDDKKLLTWREETGKTAFETAPQYEGKIGEQEYFDKGVLMIAMVKAGVELAFETMVDSGIIEESAYYESLHELPLIANTIARKRLYEMNVVISDTAEYGNYLFSYACVPLLKPFMAELQPGDLGKAIPEGAVDNGQLRDVNEAIRSHAIEQVGKKLRGYMTDMKRIAVAGLEHHHHH
Turning to B2, the kcat/Km in data set [6] (setting [7]) is 11100 M⁻¹ s⁻¹; in data set [6] (with NADH), 302000 M⁻¹ s⁻¹.

The values are drawn from US8097440B1, “Engineered microorganisms capable of producing target compounds under anaerobic conditions” (Gevo, Inc., priority 2008, dated 2012).
